Where two headings read alike, the source gives them in different places.
Key:
[1] = molecular target: amyloid-β-peptide (Homo sapiens, UniProt P05067); assay: FL with amyloid-β-peptide before and after aging; conditions: 0.1 mg/mL amyloid-β-peptide, λex 350 nm
[2] = system: heparin, apoferritin, cellulose, papain, native and fibrillar insulin; assay: FL specificity against other protein monomers; conditions: protein 1.0 mg/mL
[3] = system: lysozyme; assay: FL during lysozyme fibril formation; conditions: 10, 50 and 100 μM, over 4 days
[4] = Photophysical properties in solution and aggregate states (AIE effect); format: physicochemical; conditions: for Emission maximum wavelength (λem): excitation 350 nm
[5] = molecular target: Bovine serum albumin (BSA) (Bos taurus, UniProt P02769); assay: Fluorimetric titration of BSA to polyenes; format: binding; conditions: for ΦE (quantum yield), bind / λex (emission maximum), bind: BSA solution of TPE-OH•Na2 or TPE-SO3 in aqueous phosphate buffer pH 7.0; for λex (emission maximum), bind: excitation 350 nm
Sequence of Bovine serum albumin (BSA) (P02769 25-607): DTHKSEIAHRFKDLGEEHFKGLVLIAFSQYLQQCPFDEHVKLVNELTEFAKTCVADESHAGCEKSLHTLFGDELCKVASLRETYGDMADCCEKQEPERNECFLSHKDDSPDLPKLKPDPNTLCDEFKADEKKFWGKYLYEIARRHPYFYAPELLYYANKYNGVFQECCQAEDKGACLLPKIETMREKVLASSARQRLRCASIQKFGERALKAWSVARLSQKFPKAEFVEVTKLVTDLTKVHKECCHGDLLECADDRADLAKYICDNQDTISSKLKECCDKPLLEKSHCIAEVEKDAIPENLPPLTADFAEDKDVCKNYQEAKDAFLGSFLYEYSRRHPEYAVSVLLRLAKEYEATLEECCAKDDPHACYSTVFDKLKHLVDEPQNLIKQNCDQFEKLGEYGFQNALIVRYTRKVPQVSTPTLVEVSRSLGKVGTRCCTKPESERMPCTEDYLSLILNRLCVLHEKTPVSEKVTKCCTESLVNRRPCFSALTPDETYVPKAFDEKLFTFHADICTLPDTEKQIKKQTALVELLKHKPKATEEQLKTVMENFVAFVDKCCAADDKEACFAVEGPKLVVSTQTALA
Description: (§1) Fluorimetric titration of biomacromolecules to polyenes Bovine serum albumin (BSA) and calf thymus DNA (ctDNA) were selected as model proteins and DNA. BSA was dissolved in a pH 7.0 phosphate buffer solution (1.0 mg/ml). DNA was dissolved in deionized water (1.0 mg/ml) and filtered through a 0.45 μm filter. The actual concentration (in nucleic base) was determined by UV photometry using the extinction coefficient ε260=6600 M^−1 cm^−1.
(§2) Stock solutions of polyenes were 5×10^−4 M in water. Fluorescence titration was carried out by sequentially adding 100 μl aliquots of DNA or BSA solutions to a 100 μl stock solution of polyenes, followed by adding an aqueous phosphate buffer (10 mM, pH 7) to acquire a 10.00 ml solution. The mixtures were stirred for half an hour prior to taking their spectra.
Complexation of the water-soluble AIE TPEs 3 and 4 with calf thymus DNA (ctDNA) and bovine serum albumin (BSA) were investigated by spectrometric titrations in aqueous phosphate buffer (pH=7.0) at 25 C. Stock solutions of TPEs 3 and 4 (0.25 mM) were prepared.

[6] = system: ctDNA/RNA from torula yeast/BSA; assay: Fluorescence increments / binding isotherm with ctDNA, RNA and BSA; conditions: 10 μg/ml ctDNA or RNA, dye 5 μM
Description: FIG. 8 illustrates increments of fluorescence of TPE-C2N^+ (8), N+C2-TPE-C2N^+ (9), TPE-C4N^+ (10), N+C4-TPE-C4N^+ (11) when binding with 10 μg/ml ctDNA/10 μg/ml RNA diethylaminoethanol (DEAE) salt from torula yeast/10 μg/ml RNA from torula yeast in buffer solution pH=7. Concentration of dyes: 5 μM; excitation wavelength: 350 nm. The four cationic TPE derivatives display larger FL enhancement in the presence of DNA than that of RNA.
FIG. 9 illustrates the binding isotherm of N+C2-TPE-C2N^+ (5 μM) to ctDNA/RNA from torula yeast/BSA (plot of the fluorescence intensity at 470 nm for ctDNA/RNA, and at 467 nm for BSA) in aqueous phosphate buffer (pH=7.0).

[7] = Photophysical properties in solution and aggregate states (AIE effect); format: physicochemical; conditions: for Fluorescence quantum yield (ΦF), molecularly dissolved: AN solution / AN-water mixtures with low water fraction; for Fluorescence quantum yield (ΦF), aggregated: AN/water mixture with 99% water
Text: Changes in the φF values of TBEPE in the AN/water mixtures with different water contents further confirm its AIE nature. […] Afterward the φF value starts to increase swiftly. In the AN/water mixtures with lower water fractions, TBEPE is genuinely dissolved, while in the aqueous mixtures with higher water fractions (>60%), the dye molecules cluster together due to the deterioration in the solvating power of the mixture. When the water fraction is increased to 99 vol %, the aφF value is increased to −18%, which is ˜35-fold higher than that in the pure AN solvent. The absolute φF values of the aggregates should be much higher than the relative ones given in FIG. 26A, if the light scattering caused by the Mie effect of the nanoaggregatcs is taken into consideration. […]
Dilute solutions of TPEs 1 and 2 in AN are practically non-luminescent. Addition of non-solvent water into the AN solutions can turn on the emissions of the dyes. From the molecular solution in AN to the aggregate suspension in an AN-water mixture (1:99 by volume), the fluorescent intensity of TPE 1 at 476 nm is increased by −240 fold (FIG. 11A). Its absorption maximum shifts from 310 nm in the solution to 330 nm in the suspension. The excitation maximum of TPE 1 locates at 330 nm, coinciding well with its absorption maximum. […] Evidently, the emission of TPE 1 is induced by the aggregate formation, or in other words, TPE 1 is AIE-active.
The ΦF value of TPE 1 starts to increase when the water fraction is increased to ˜50%, at which the solvating power of the mixture is decreased to such an extent that the dye molecules begin to aggregate. The ΦF value reaches ˜20% at a water content of 99%, which is ˜40-fold higher than that of its AN solution. […] Their emissions in the mixtures remain as faint as those in the water solutions.

[8] = Solubility; format: physicochemical
[9] = system: HG21 DNA; assay: CD spectra: G-quadruplex induction by TPE derivatives; format: biochemical; conditions: 9 μM DNA, 4.5 μM TPE derivative, Tris-HCl pH 7.5, 25 °C
Description: [TPE]=4.5 μM; [HG21]=9 μM and [K^+]=0.5 M.
CD spectral profiles of 9 μM DNA in 5 mM Tris-HCl buffer solutions (pH 7.5) incubated under 25° C. with four different TPE derivatives at 4.5 μM or with 0.5M K^+ ions are studied (FIG. 77). TPE derivatives 1-4 are TTAPE (Example 6), TPE-2 (chemical structure is not shown herein), TPE-3 (chemical structure is not shown herein) and TPE-C2N+ (Example 3), respectively. […] On the other hand, DNA incubated with TTAPE or the known quadruplex inducer; K^+ ions have very similar spectral profiles, while the ellipticities of DNA/TTAPE are somehow weaker than DNA/K^+.

[10] = system: calf thymus DNA (ctDNA); assay: Fluorimetric titration of ctDNA to polyenes; format: binding; conditions: for Relative affinity to ctDNA versus BSA: phosphate buffer pH 7, dye 2.5 μM
Description: as §1, §2
Complexation of the water-soluble AIE TPEs 3 and 4 with calf thymus DNA (ctDNA) and bovine serum albumin (BSA) were investigated by spectrometric titrations in aqueous phosphate buffer (pH=7.0) at 25 C. Stock solutions of TPEs 3 and 4 (0.25 mM) were prepared. The mixture of 100 μl stock solution of 3 with 9.9 ml buffer emits faintly at 395 nm with a side band at 462 nm. Its absorption maximum locates at 311 nm, with a molar absorptivity of 12400M^−1 cm^−1. Upon addition of the DNA, FL intensity of TPE 3 increased by 5.4 fold. Meanwhile its emission maximum shifted to ˜462 nm, giving a Stokes shift as large as 134 nm. In the DNA concentration range of 0-100 μg/ml^−1, the plot of the FL intensity (1) at 462 nm as a function of DNA concentration (c) is a linear line with a correlation coefficient of 0.996. Addition of BSA to a buffer solution of TPE 3 induced a similar effect. The linear range of the I/IO−1 vs. c plot in this case is 0-50 μg/ml^−1. The excitation maximums of the solutions of TPE3 containing BSA and ctDNA both locate at 328 nm.

[11] = molecular target: HSA (Homo sapiens, UniProt P02768); conditions: cited from earlier work
Sequence of HSA (P02768 25-609): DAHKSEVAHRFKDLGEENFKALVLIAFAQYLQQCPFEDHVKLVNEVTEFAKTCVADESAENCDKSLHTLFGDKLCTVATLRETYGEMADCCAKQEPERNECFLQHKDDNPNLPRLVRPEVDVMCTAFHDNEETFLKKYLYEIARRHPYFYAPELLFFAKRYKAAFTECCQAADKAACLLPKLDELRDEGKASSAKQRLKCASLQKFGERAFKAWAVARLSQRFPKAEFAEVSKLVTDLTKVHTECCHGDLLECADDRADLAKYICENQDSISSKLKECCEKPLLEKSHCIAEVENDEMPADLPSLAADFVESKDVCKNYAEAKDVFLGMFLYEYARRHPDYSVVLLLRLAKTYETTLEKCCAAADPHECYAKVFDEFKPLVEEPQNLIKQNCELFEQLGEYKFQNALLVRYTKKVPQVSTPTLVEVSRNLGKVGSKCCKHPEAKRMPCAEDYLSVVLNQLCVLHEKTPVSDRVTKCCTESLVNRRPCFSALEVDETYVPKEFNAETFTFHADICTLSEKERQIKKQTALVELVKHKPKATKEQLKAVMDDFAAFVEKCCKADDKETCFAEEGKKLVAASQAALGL

[12] = aggregate: 99% water/AN for TPE-OMe and TPE-OH, 99% AN/water for TPE-SO3
[13] = solution: acetonitrile for TPE-OMe and TPE-OH (10 μM), water for TPE-SO3 (5 μM)

Sequence of amyloid-β-peptide (P05067 672-711 limits assumed): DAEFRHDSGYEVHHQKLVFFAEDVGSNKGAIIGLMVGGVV

## 1,2-Diphenyl-1,2-bis(4,4′-(3-sulfonato)propoxyl)phenylethylene [TPE-SO3]
[1]
  Emission on formation of amyloid-β-peptide fibrils (after aging): increases dramatically
[2]
  FL with fibrillar insulin: significantly higher than other cellular proteins tested
  FL with heparin, apoferritin and cellulose: comparable to TPE-SO3 solution alone
  FL with papain: comparable to native insulin monomer
[3]
  Fluorescence profile during lysozyme fibril formation: produces fluorescence profile corresponding to lysozyme fibrillation
[4]; [12]
  ΦE (quantum yield), aggr: 17.47%
  λab (absorption maximum), aggr: 320 nm
  Emission maximum wavelength (λem): 442 nm
[4]; [13]
  ΦE (quantum yield), soln: 0.37%
  λab (absorption maximum), soln: 312 nm
  Emission maximum wavelength (λem): 398 nm
[5]
  ΦE (quantum yield), bind: 58.2%
  λex (emission maximum), bind: 472 nm
[5]; aqueous phosphate buffer, 472 nm
  FL intensity increase upon binding with BSA: up to 240 times

## CC[N+](CC)(CC)CCCCOc1ccc(C(=C(c2ccc(OCCCC[N+](CC)(CC)CC)cc2)c2ccc(OCCCC[N+](CC)(CC)CC)cc2)c2ccc(OCCCC[N+](CC)(CC)CC)cc2)cc1.[Br-].[Br-].[Br-].[Br-] [N+C4-TPE-C4N^+, N,N′,N″,N′″-[1,2-Tetrakis(1,4-phenoxybutyl)vinyl)tetrakis(triethylammonium bromide)]
[6]
  Variety of FL in presence of DNA and RNA compared with TPE-C2N+ and TPE-C4N+: much larger variety of FL

## BrCCOc1ccc(C(=C(c2ccc(OCCBr)cc2)c2ccc(OCCBr)cc2)c2ccc(OCCBr)cc2)cc1 [TBEPE, 1,1,2,2-tetrakis[4-(2-bromoethoxy}phenyl]ethene]
[7]
  Increase of ΦF at 99% water versus AN solution: ~35 fold
  Fluorescence quantum yield (ΦF), molecularly dissolved: 0.5%
  Fluorescence quantum yield (ΦF), aggregated: 18%
[8]
  Solubility in water: totally insoluble in water

## BrCCOc1ccc(C(=C(c2ccccc2)c2ccc(OCCBr)cc2)c2ccccc2)cc1 [TPE 1, 1,2-Bis[4-(2-bromoethoxy)phenyl]-1,2-diphenylethene]
[7]
  Increase of fluorescent intensity at 476 nm, AN solution to AN-water (1:99) suspension: 240 fold
  Increase of ΦF at 99% water versus AN solution: ~40 fold
  Fluorescence quantum yield (ΦF), molecularly dissolved: ~0.5%
  Fluorescence quantum yield (ΦF), aggregated: ~20%
[8]
  Solubility in water: insoluble in water

## CC[N+](CC)(CC)CCOc1ccc(/C(=C(\c2ccccc2)c2ccc(OCC[N+](CC)(CC)CC)cc2)c2ccccc2)cc1.[Br-].[Br-] [TPE-C2N^+, N,N′-[1,2-Diphenyl-1,2-bis(1,4-phenoxyethyl)vinyl]bis(triethylammonium bromide)]
[9]
  G-quadruplex induction (CD spectral profile): spectral profile comparable to the negative control
[8]
  Solubility in water: soluble in water
[10]
  Linear range of FL intensity vs DNA concentration: 0-100 μg/ml^−1
  Relative affinity to ctDNA versus BSA: better affinity to ctDNA than BSA
[10]; phosphate buffer pH 7.0, 25 C
  FL intensity increase upon addition of DNA: 5.4 fold
[5]
  Linear range of FL intensity vs BSA concentration: 0-50 μg/ml^−1

## CC[N+](CC)(CC)CCCCOc1ccc(/C(=C(\c2ccccc2)c2ccc(OCCCC[N+](CC)(CC)CC)cc2)c2ccccc2)cc1.[Br-].[Br-] [TPE-C4N^+, N,N′-[1,2-Diphenyl-1,2-bis(1,4-phenoxybutyl)vinyl]bis(triethylammonium bromide)]
[8]
  Solubility in water: soluble in water
[10]
  Linear range of FL intensity vs DNA concentration: 0-20 μg/ml^−1
  Relative affinity to ctDNA versus BSA: gives the opposite result
[10]; 300 μg/ml ct DNA added
  I/Io: 16.3
[5]
  Linear range of FL intensity vs BSA concentration: 0-40 μg/ml^−1
[5]; 500 μg/ml BSA added
  I/Io: 23.8

## O=C(O)c1ccc(/C(=C(\c2ccccc2)c2ccc(C(=O)O)cc2)c2ccccc2)cc1 [TPE-COOH, 4,4′-(1,2-diphenylvinyl)di(phenylcarboxylic acid)]
[8]
  Solubility in water: insoluble

## Oc1ccc(/C(=C(\c2ccccc2)c2ccc(O)cc2)c2ccccc2)cc1 [TPE-OH, 1,2-Bis(4-hydroxyphenyl)-1,2-diphenylethylene]
[4]; [12]
  ΦE (quantum yield), aggr: 8.90%
  λab (absorption maximum), aggr: 316 nm
  Emission maximum wavelength (λem): 439 nm
[4]; [13]
  ΦE (quantum yield), soln: 0.57%
  λab (absorption maximum), soln: 312 nm
  Emission maximum wavelength (λem): 393 nm
[5]
  ΦE (quantum yield), bind: 35.7%
  λex (emission maximum), bind: 467 nm
[5]; aqueous phosphate buffer pH 7.0
  Linear range of FL intensity vs BSA concentration: 0 to 10 µg/mL

## COc1ccc(C(=C(c2ccccc2)c2ccc(OC)cc2)c2ccccc2)cc1 [TPE-OMe, 1,2-Bis(4-methoxyphenyl)-1,2diphenylethene]
[4]; [12]
  ΦE (quantum yield), aggr: 15.30%
  λab (absorption maximum), aggr: 330 nm
  Emission maximum wavelength (λem): 477 nm
[4]; [13]
  ΦE (quantum yield), soln: 0.11%
  λab (absorption maximum), soln: 311 nm
  Emission maximum wavelength (λem): 394 nm

## Coomassie Brilliant Blue
[11]
  Staining reaction (soaking) time: more than 6 hours

— patent US9279806B2, “Water-soluble AIE luminogens for monitoring and retardation of fibrillation of amyloid proteins” (THE HONG KONG UNIVERSITY OF SCIENCE AND TECHNOLOGY, priority 2005, dated 2016)
